Source: ChEMBL document CHEMBL3046062, “Anti-HIV, antimycobacterial and antimicrobial studies of newly synthesized 1,2,4-triazole clubbed benzothiazoles” (Med Chem Res, 2013)
Values after ≈ are worked out from the molar mass of the structure shown.

Key:
[1] = test system: Human immunodeficiency virus 2; assay: Antiviral activity against Human immunodeficiency virus type 2 (ISOLATE ROD) infected MT4 cells assessed as inhibition of virus-induced cytopathogenicity after 5 days by MTT assay; assay type: functional, organism-based; conditions: Human immunodeficiency virus 2, ISOLATE ROD, MT4, 120 h
[2] = Cytotoxicity against Homo sapiens (human) MT4 cells after 5 days by MTT assay; assay type: cell-based
[3] = Selectivity index, ratio of CC50 for human MT4 cells to IC50 for HIV1 3B; assay type: functional
[4] = test system: Human immunodeficiency virus 1; assay: Antiviral activity against Human immunodeficiency virus 1 IIIB infected MT4 cells assessed as inhibition of virus-induced cytopathogenicity after 5 days by MTT assay; assay type: functional, organism-based; conditions: MT4, 120 h
[5] = Selectivity index, ratio of CC50 for human MT4 cells to IC50 for HIV2 ROD; assay type: functional
[6] = test system: Streptococcus pyogenes; assay: Antibacterial activity against Streptococcus pyogenes MTCC 443 after overnight incubation by broth microdilution method; assay type: functional
[7] = test system: Aspergillus clavatus; assay: Antifungal activity against Aspergillus clavatus MTCC 323 after overnight incubation by broth microdilution method; assay type: functional
[8] = test system: Mycobacterium tuberculosis; assay: Antitubercular activity against Mycobacterium tuberculosis H37Rv after 28 days by Lowenstein-Jensen agar method; assay type: functional; conditions: 672 h
[9] = test system: Candida albicans; assay: Antifungal activity against Candida albicans MTCC 227 after overnight incubation by broth microdilution method; assay type: functional
[10] = test system: Pseudomonas aeruginosa; assay: Antibacterial activity against Pseudomonas aeruginosa MTCC 2488 after overnight incubation by broth microdilution method; assay type: functional
[11] = test system: Escherichia coli; assay: Antibacterial activity against Escherichia coli MTCC 442 after overnight incubation by broth microdilution method; assay type: functional
[12] = test system: Aspergillus niger; assay: Antifungal activity against Aspergillus niger MTCC 282 after overnight incubation by broth microdilution method; assay type: functional
[13] = test system: Staphylococcus aureus; assay: Antibacterial activity against Staphylococcus aureus MTCC 96 after overnight incubation by broth microdilution method; assay type: functional
[14] = test system: Mycobacterium tuberculosis; assay: Growth inhibition of Mycobacterium tuberculosis H37Rv at MIC after 28 days by Lowenstein-Jensen agar method; assay type: functional

SMILES | IC50 [1] | CC50 at 120 h [2] | Ratio CC50/IC50 [3] | IC50 [4] | Ratio CC50/IC50 [5] | MIC99 [6] | MIC99 [7] | MIC [8] | MIC99 [9] | MIC99 [10] | MIC99 [11] | MIC99 [12] | MIC99 [13] | growth inhibition (GI) [14]
NNc1nc2ccc(F)cc2s1 | > 13.8 µg/mL | 13.8 µg/mL (≈ 75.2 µM) | <1 | > 13.8 µg/mL | <1 | – | – | – | – | – | – | – | – | –
NNc1nc2ccc(Br)cc2s1 | > 8.01 µg/mL | 8.01 µg/mL (≈ 32.8 µM) | <1 | > 8.01 µg/mL | <1 | – | – | – | – | – | – | – | – | –
NNc1nc2ccc([N+](=O)[O-])cc2s1 | > 12.8 µg/mL | 12.8 µg/mL (≈ 60.9 µM) | <1 | > 12.8 µg/mL | <1 | – | – | – | – | – | – | – | – | –
Cc1ccc2nc(NN)sc2c1 | > 4.52 µg/mL | 4.52 µg/mL (≈ 25.2 µM) | <1 | > 4.52 µg/mL | <1 | – | – | – | – | – | – | – | – | –
COc1ccc2nc(NN)sc2c1 | > 14.8 µg/mL | 14.8 µg/mL (≈ 75.7 µM) | <1 | > 14.8 µg/mL | <1 | – | – | – | – | – | – | – | – | –
NNc1nc2ccc(Cl)cc2s1 | > 2.48 µg/mL | 2.48 µg/mL (≈ 12.4 µM) | <1 | > 2.48 µg/mL | <1 | – | – | – | – | – | – | – | – | –
Cc1cccc2sc(NN)nc12 | > 9.8 µg/mL | 9.8 µg/mL (≈ 54.7 µM) | <1 | > 9.8 µg/mL | <1 | – | – | – | – | – | – | – | – | –
NNc1nc2c([N+](=O)[O-])cccc2s1 | > 14.5 µg/mL | 14.5 µg/mL (≈ 68.9 µM) | <1 | > 14.5 µg/mL | <1 | – | – | – | – | – | – | – | – | –
NNc1nc2cc(Cl)c(Cl)cc2s1 | > 80 µg/mL | 80 µg/mL (≈ 342 µM) | <1 | > 80 µg/mL | <1 | – | – | – | – | – | – | – | – | –
NNc1nc2c(Cl)cccc2s1 | > 117 µg/mL | 117 µg/mL (≈ 586 µM) | 1 | > 117 µg/mL | 1 | – | – | – | – | – | – | – | – | –
O=[N+]([O-])c1ccc(-c2nnc(-c3cccnc3)n2Nc2nc3ccc(F)cc3s2)cc1 | > 108 µg/mL | ≥ 108 µg/mL | 1 | > 108 µg/mL | 1 | – | – | – | – | – | – | – | – | –
O=[N+]([O-])c1ccc(-c2nnc(-c3cccnc3)n2Nc2nc3ccc(Br)cc3s2)cc1 | > 13.2 µg/mL | 13.2 µg/mL (≈ 26.7 µM) | <1 | > 13.2 µg/mL | <1 | – | – | – | – | – | – | – | – | –
O=[N+]([O-])c1ccc(-c2nnc(-c3cccnc3)n2Nc2nc3ccc([N+](=O)[O-])cc3s2)cc1 | > 50.8 µg/mL | 50.8 µg/mL (≈ 110 µM) | <1 | > 50.8 µg/mL | <1 | – | – | – | – | – | – | – | – | –
Cc1ccc2nc(Nn3c(-c4ccc([N+](=O)[O-])cc4)nnc3-c3cccnc3)sc2c1 | > 64.4 µg/mL | 64.4 µg/mL (≈ 150 µM) | <1 | > 64.4 µg/mL | <1 | – | – | – | – | – | – | – | – | –
COc1ccc2nc(Nn3c(-c4ccc([N+](=O)[O-])cc4)nnc3-c3cccnc3)sc2c1 | > 12.9 µg/mL | 12.9 µg/mL (≈ 29 µM) | <1 | > 12.9 µg/mL | <1 | – | – | – | – | – | – | – | – | –
O=[N+]([O-])c1ccc(-c2nnc(-c3cccnc3)n2Nc2nc3ccc(Cl)cc3s2)cc1 | > 53.7 µg/mL | 53.7 µg/mL (≈ 119 µM) | <1 | > 53.7 µg/mL | <1 | – | – | – | – | – | – | – | – | –

SMILES | IC50 [1] | CC50 at 120 h [2] | Ratio CC50/IC50 [3] | IC50 [4] | Ratio CC50/IC50 [5] | MIC99 [6] | MIC99 [7] | MIC [8] | MIC99 [9] | MIC99 [10] | MIC99 [11] | MIC99 [12] | MIC99 [13] | growth inhibition (GI) [14]
Cc1cccc2sc(Nn3c(-c4ccc([N+](=O)[O-])cc4)nnc3-c3cccnc3)nc12 | > 13.5 µg/mL | 13.5 µg/mL (≈ 31.4 µM) | <1 | > 13.5 µg/mL | <1 | – | – | – | – | – | – | – | – | –
O=[N+]([O-])c1ccc(-c2nnc(-c3cccnc3)n2Nc2nc3c([N+](=O)[O-])cccc3s2)cc1 | > 13.8 µg/mL | 13.8 µg/mL (≈ 29.9 µM) | <1 | > 13.8 µg/mL | <1 | – | – | – | – | – | – | – | – | –
O=[N+]([O-])c1ccc(-c2nnc(-c3cccnc3)n2Nc2nc3cc(Cl)c(Cl)cc3s2)cc1 | > 68.6 µg/mL | 68.7 µg/mL (≈ 142 µM) | <1 | > 68.6 µg/mL | <1 | – | – | – | – | – | – | – | – | –
O=[N+]([O-])c1ccc(-c2nnc(-c3cccnc3)n2Nc2nc3c(Cl)cccc3s2)cc1 | > 15.5 µg/mL | 15.6 µg/mL (≈ 34.6 µM) | <1 | > 15.5 µg/mL | <1 | – | – | – | – | – | – | – | – | –
Cc1cccc2sc(Nn3c(-c4ccc(Cl)cc4)nnc3-c3cccnc3)nc12 | > 36.4 µg/mL | 36.5 µg/mL (≈ 87 µM) | <1 | > 36.4 µg/mL | <1 | 1000 µg/mL (≈ 2390 µM) | 500 µg/mL (≈ 1190 µM) | 50 µg/mL (≈ 119 µM) | 200 µg/mL (≈ 477 µM) | 250 µg/mL (≈ 597 µM) | 500 µg/mL (≈ 1190 µM) | 500 µg/mL (≈ 1190 µM) | 100 µg/mL (≈ 239 µM) | 95%
O=[N+]([O-])c1cccc2sc(Nn3c(-c4ccc(Cl)cc4)nnc3-c3cccnc3)nc12 | > 21.3 µg/mL | 21.3 µg/mL (≈ 47.4 µM) | <1 | > 21.3 µg/mL | <1 | 250 µg/mL (≈ 556 µM) | 500 µg/mL (≈ 1110 µM) | 500 µg/mL (≈ 1110 µM) | 100 µg/mL (≈ 222 µM) | 125 µg/mL (≈ 278 µM) | 100 µg/mL (≈ 222 µM) | 500 µg/mL (≈ 1110 µM) | 200 µg/mL (≈ 445 µM) | 97%
Clc1ccc(-c2nnc(-c3cccnc3)n2Nc2nc3cc(Cl)c(Cl)cc3s2)cc1 | > 52.1 µg/mL | 52.1 µg/mL (≈ 110 µM) | <1 | > 52.1 µg/mL | <1 | 500 µg/mL (≈ 1060 µM) | 1000 µg/mL (≈ 2110 µM) | 250 µg/mL (≈ 528 µM) | 250 µg/mL (≈ 528 µM) | 250 µg/mL (≈ 528 µM) | 500 µg/mL (≈ 1060 µM) | 250 µg/mL (≈ 528 µM) | 500 µg/mL (≈ 1060 µM) | 98%
Clc1ccc(-c2nnc(-c3cccnc3)n2Nc2nc3c(Cl)cccc3s2)cc1 | > 27.2 µg/mL | 27.2 µg/mL (≈ 61.8 µM) | <1 | > 27.2 µg/mL | <1 | 500 µg/mL (≈ 1140 µM) | 500 µg/mL (≈ 1140 µM) | 12.5 µg/mL (≈ 28.5 µM) | 200 µg/mL (≈ 455 µM) | 62.5 µg/mL (≈ 142 µM) | 100 µg/mL (≈ 228 µM) | 500 µg/mL (≈ 1140 µM) | 250 µg/mL (≈ 569 µM) | 98%
O=[N+]([O-])c1ccc(-c2nnc(-c3cccnc3)o2)cc1 | > 73.5 µg/mL | 73.5 µg/mL (≈ 274 µM) | <1 | > 73.5 µg/mL | <1 | – | – | – | – | – | – | – | – | –
CC1(C)S[C@@H]2[C@H](NC(=O)[C@H](N)c3ccccc3)C(=O)N2[C@H]1C(=O)O [AMPICILLIN] | – | – | – | – | – | 100 µg/mL (≈ 286 µM) | – | – | – | 100 µg/mL (≈ 286 µM) | 100 µg/mL (≈ 286 µM) | – | 250 µg/mL (≈ 715 µM) | –
Clc1ccccc1C(c1ccccc1)(c1ccccc1)n1ccnc1 [CLOTRIMAZOLE] | – | – | – | – | – | – | – | 20.4 µg/mL (≈ 59.2 µM) | – | – | – | – | – | 96%
Clc1ccc(COC(Cn2ccnc2)c2ccc(Cl)cc2Cl)cc1 (centres undefined) [ECONAZOLE] | – | – | – | – | – | – | – | 12.5 µg/mL (≈ 32.7 µM) | – | – | – | – | – | 99%
COC1=CC(=O)C[C@@H](C)[C@]12Oc1c(Cl)c(OC)cc(OC)c1C2=O [GRISEOFULVIN] | – | – | – | – | – | – | 100 µg/mL (≈ 283 µM) | – | 500 µg/mL (≈ 1420 µM) | – | – | 100 µg/mL (≈ 283 µM) | – | –
NNC(=O)c1ccncc1 [ISONIAZID] | – | – | – | – | – | – | – | 0.2 µg/mL (≈ 1.46 µM) | – | – | – | – | – | 99%
Cc1ccnc2c1NC(=O)c1cccnc1N2C1CC1 [NEVIRAPINE] | – | > 4 µg/mL | >80 | > 0.05 µg/mL | – | – | – | – | – | – | – | – | – | –
CO[C@H]1/C=C/O[C@@]2(C)Oc3c(C)c(O)c4c(O)c(c(/C=N/N5CCN(C)CC5)c(O)c4c3C2=O)NC(=O)/C(C)=C\C=C\[C@H](C)[C@H](O)[C@@H](C)[C@@H](O)[C@@H](C)[C@H](OC(C)=O)[C@@H]1C [RIFAMPIN] | – | – | – | – | – | – | – | 40 µg/mL (≈ 48.6 µM) | – | – | – | – | – | 99%
